Where a name gives a salt, the structure may show the parent alone.

Series [1] concerns onychomycosis. The settings on record: cited from earlier work.
Series [2] has as its system onychomycosis of the toenail. Description: ALA-based PDT of onychomycosis with 10 day delay before red light (Example 1). How it is done:
A 5 percent ALA solution was prepared by dilution of 20 percent ALA Topical Solution (Levulan® Kerastick® (aminolevulinic acid HCl) for Topical Solution, 20%). The ALA solution was then applied to a healthy volunteer suffering from mild to moderate onychomycosis involving the hallux (proximal or big toe) toenail and the second toenail of the left foot. The ALA solution was applied liberally to the nail surface and the periungual skin areas. The entire toe was wrapped in an occlusive dressing (Tegaderm®) for 12 hours. Twenty-four hours post ALA application, the treated area was examined for porphryin fluorescence using a long wave UV light (Wood's Light) as an excitation source.
The subject was instructed to avoid light exposure to the treated toes. Fluorescence evaluation was performed again 10 days post ALA application.
The subject was then treated with 100 Joules/cm^2 of red light using the Sciencetech 7500 illuminator, causing an activation reaction.
The subject was again instructed to avoid light exposure to the treated toes. Follow up evaluations were performed 5 and 20 days post light treatment (15 and 30 days post ALA application).

Series [3] has as its system mouse skin. The settings on record: cited from earlier work.
The test system of series [4] is onychomycosis of the toenail. As to conditions: in vivo; cited from earlier work.
Series [5] concerns acne lesions. As to conditions: in vivo; cited from earlier work.
The mark [6] stands for this setting: 100 Joules/cm^2 red light 10 days post ALA.

Take `CN(C/C=C/C#CC(C)(C)C)Cc1cccc2ccccc12` [terbinafine, terbinafine hydrochloride]: the “adverse events unrelated to the treatment site” value in series [1] (in vivo, po) was “gastrointestinal disorders, rashes, disruption of the sense of taste, and liver disorders”. Besides, in series [1] (oral, complete course of treatment (every day for three months)), the complete clearance entry was “only a minority of cases”.
As to `NCC(=O)CCC(=O)O` [ALA, aminolevulinic acid], in series [2] (setting [6]), the “sensation during light treatment, proximal toe” value was “only mild tingling and slight stinging”; the “sensation during light treatment, second toe” value is recorded as “little to no sensation”. For the same molecule, in series [2] (5 days post light treatment), the “local reaction (edema, redness), proximal toe” value was “only slight edema in the area around the nail plate, and mild redness of the nail bed itself”; the “local reaction (redness), second toe” value is reported as “only slight redness in the nail bed”. In addition, the “appearance of treated toes” value in series [2] (20 days after exposure to the activating red light) is reported as “both treated toes appeared normal”. For the same molecule, in series [2] (noted by subject), the “adverse effects associated with the treatment” value is recorded as “no adverse effects”. In series [3], the “time for protoporphyrin levels to return to near pretreatment baseline” value is on record as “about 18 hours” and the “time to peak protoporphyrin IX concentration” value is listed as “about six”. Besides, the local adverse reaction entry in series [4] was “redness and edema (swelling)”. Besides, the “time until ability of light to specifically excite protoporphyrin IX disappeared” value in series [5] is at most 24 h.

Source of the values: US9561276B2, “Method of treating onychomycosis” (DUSA PHARMACEUTICALS, INC., priority 2012, dated 2017).
